Experimental data as given in PubChem BioAssay (NCI).
Several values for one entry are separate records, joined by “and”; a condition that tells them apart may be missing. Equal entries are not always repeated.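 Step 1: Grow cells in 96-well plates. Step 2: Expose to compound for 48 hours at 5 concentrations. Step 3: Interpolate endpoints linearly; if unreached, use highest concentration. Abbreviation: GI50, concentration required for 50% inhibition of growth. TGI marks complete inhibition of growth.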

Columns and labels:
Assay in all cases: NCI-60 cell line screen, 48 h
786-0 renal = tested on: 786-0 renal
MDA-MB-231 breast = tested on: MDA-MB-231 breast
HS 578T breast = tested on: HS 578T breast
NCI-H23 lung = tested on: NCI-H23 lung
MOLT-4 leukemia = tested on: MOLT-4 leukemia
DU-145 prostate = tested on: DU-145 prostate
CCRF-CEM leukemia = tested on: CCRF-CEM leukemia
OVCAR-3 ovarian = tested on: OVCAR-3 ovarian
IGROV1 ovarian = tested on: IGROV1 ovarian
TK-10 renal = tested on: TK-10 renal

Structure (SMILES)	TGI (786-0 renal)	TGI (MDA-MB-231 breast) [µM]	TGI (HS 578T breast) [µM]	TGI (NCI-H23 lung)	TGI (MOLT-4 leukemia)	TGI (DU-145 prostate)	TGI (CCRF-CEM leukemia) [µM]	TGI (OVCAR-3 ovarian)	TGI (IGROV1 ovarian)	TGI (TK-10 renal) [µM]	GI50 (786-0 renal) [µM]	GI50 (MDA-MB-231 breast) [µM]	GI50 (HS 578T breast) [µM]	GI50 (NCI-H23 lung)	GI50 (MOLT-4 leukemia) [µM]	GI50 (DU-145 prostate) [µM]	GI50 (CCRF-CEM leukemia) [µM]	GI50 (OVCAR-3 ovarian)	GI50 (IGROV1 ovarian)	GI50 (TK-10 renal) [µM]
O=C(O)c1ccc(NCc2nc3cc4ccccc4cc3[nH]2)cc1	> 100 µM	> 100	> 100	> 100 µM	> 100 µM	> 100 µM	> 100	> 100 µM	> 100 µM	> 100	–	–	–	–	–	–	–	–	–	–
CN1CCN(Cc2ccc(NC(=O)c3nc4ccc5[nH]ncc5c4c4c3CCC4)cc2C(F)(F)F)CC1	1.56 µM	1.68	1.65	3.22 µM	2.58 µM	1.76 µM	3.64	1.68 µM	1.7 µM	1.65	0.859	0.924	0.833	1.07 µM	1.1	0.944	1.25	0.904 µM	0.907 µM	0.884
O=C(NNc1ccccc1)OCc1ccccc1	> 100 µM	> 100	> 100	> 100 µM	> 100 µM	> 100 µM	> 100	> 100 µM	> 100 µM	> 100	7.01	11.3	70.2	69.5 µM	5.89	75.5	3.94	21 µM	15.2 µM	32.9
c1ccc(-c2nnc(Nc3ccc4c(c3)OCCO4)o2)c(NCc2ccncc2)c1	> 100 µM	> 100	> 69.4	6.81 µM	> 100 µM	0.566 µM	> 100	0.0504 µM	19.1 µM	> 81.8	0.0756	0.0769	0.0281	0.033 µM	0.0485	0.0363	0.033	0.021 µM	0.0624 µM	1.98
C/C(=N\NC(=O)c1ccccc1O)c1cccc(/C(C)=N/NC(=O)c2ccccc2O)n1	45.6 µM and 18.4 µM	> 100	> 100	63.8 µM and > 100 µM	17.5 µM and > 100 µM	> 100 µM and 31.3 µM	48.8	24.3 µM and > 53.5 µM	43.8 µM and > 100 µM	> 80.6	0.616	10.6	> 100	16 µM and 1.73 µM	0.424	10.7	0.693	1.06 µM and 0.362 µM	2.4 µM and 15.4 µM	0.614
CO[C@H]1C[C@@H]2CC[C@@H](C)[C@@](O)(O2)C(=O)C(=O)N2CCCC[C@H]2C(=O)O[C@H]([C@H](C)C[C@@H]2CC[C@@H](OP(C)(C)=O)[C@H](OC)C2)CC(=O)[C@H](C)/C=C(\C)[C@@H](O)[C@@H](OC)C(=O)[C@H](C)C[C@H](C)/C=C/C=C/C=C/1C	22.7 µM	27.7	37.1	29.1 µM	37.1 µM	22.4 µM	52.4	23.3 µM	18.3 µM	22.3	8.92	12.4	–	11.1 µM	2.96	10.4	8.17	11.1 µM	< 0.01 µM	–
O=C(O)CCCSc1nc2ccccc2s1	> 100 µM	> 100	> 100	> 100 µM	> 100 µM	> 100 µM	> 100	> 100 µM	> 100 µM	> 100	–	–	–	–	–	–	–	–	–	–
O=C(O)C[O][Sb][O]CC(=O)O	> 100 µM	> 100	> 100	> 100 µM	> 100 µM	> 100 µM	> 100	> 100 µM	> 100 µM	> 100	> 100	> 100	> 100	> 100 µM	> 100	> 100	> 100	> 100 µM	> 100 µM	> 100
COc1ccc2[nH]c(=O)c(/C=C/C(=O)/C=C/c3ccc(O)c(OC)c3)cc2c1	3.17 µM	3.78	> 100	4.88 µM	> 100 µM	3.5 µM	> 100	2.55 µM	4.24 µM	5.72	1.59	1.92	3.81	2.04 µM	2.93	1.69	2.06	1.18 µM	1.77 µM	2.29
N#Cc1cccc(/C=C(/C(=O)c2ccccc2)c2ccccc2)c1	23.8 µM	> 100	33.6	17.1 µM	23.4 µM	10.2 µM	12.8	11.8 µM	25.3 µM	19.9	6.73	4.25	2.9	3.52 µM	3.19	3.36	2.56	3.63 µM	4.27 µM	5.75
CCOC(=O)Cn1c(C)c(/C=N/NC(=O)c2cc3c(ccc4ccccc43)o2)c2ccccc21	2.24 µM	3.33	25.2	6.91 µM	> 30.1 µM	2.93 µM	> 100	1.87 µM	3.47 µM	3.92	0.491	0.702	0.514	0.669 µM	0.96	0.411	0.41	0.319 µM	0.527 µM	1.26
CCOC(=O)c1ccc(Nc2sc(C(=O)c3cccc([N+](=O)[O-])c3)c(N)c2C#N)cc1	15.3 µM	9.63	> 39.1	22.6 µM	6.59 µM	21.1 µM	8.34	0.0617 µM	26 µM	17.3	0.122	1.1	0.129	0.425 µM	0.203	0.184	0.067	0.0218 µM	0.0244 µM	0.192
Nc1ccn(C2CC(O)C(CO)O2)c(=O)n1 (stereo not drawn)	> 5000 µM	> 5000	> 5000	> 5000 µM	> 5000 µM	> 5000 µM	> 5000	> 5000 µM	> 5000 µM	> 5000	> 5000	> 5000	> 5000	> 5000 µM	> 5000	> 5000	> 5000	> 5000 µM	> 5000 µM	> 5000
